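96-well plates; 48 h exposure; 5 concentrations. Endpoints by linear interpolation between flanking doses. Not reached: highest tested concentration assigned. Here, GI50 denotes the concentration required for 50% inhibition of growth.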 Calls of active or inactive are those of the source. Cut-off read from the data, not from the text of the source: active = GI50 up to about 1.1 µM and inactive = higher. Square brackets hold non-standard residues; d marks the D form. Peptide text beside a SMILES is read from it. * marks the point of attachment. AllylGly = C=CC[CH](N)C(=O)O; Boc = CC(C)(C)OC(=O)*; OtBu = CC(C)(C)O*
What was measured:
Test in all cases: NCI anticancer screen, dose series, 48 h
[1] = test system: HL-60
[2] = test system: NCI-H226
[3] = test system: EKVX
[4] = test system: IGROV-1
[5] = test system: NCI-H23
[6] = test system: MDA-N
[7] = test system: Malme-3M
[8] = test system: BT-549
[9] = test system: SK-OV-3
[10] = test system: SR
[11] = test system: 786-0
[12] = test system: MDA-MB-435
[13] = test system: HOP-62
[14] = test system: UACC-257
[15] = test system: NCI-H460
[16] = test system: COLO 205
[17] = test system: T47D
[18] = test system: A549
[19] = test system: OVCAR-3
[20] = test system: M14

Measured: GI50

OCC1OC(n2cnc3c(SCc4ccccc4)ncnc32)C(O)C1O (stereo not given)
inactive: [1] 1.21 µM | [2] > 67.3 µM | [3] > 68.5 µM | [4] > 89.1 µM | [5] 4.86 µM | [6] > 100 µM | [7] > 100 µM | [8] 16.6 µM | [9] > 89.3 µM | [10] 2.9 µM | [11] 27.5 µM | [12] > 100 µM | [13] > 100 µM | [14] > 100 µM | [15] > 44.7 µM | [16] 14 µM | [17] 40.5 µM | [18] 26.3 µM | [19] 6.61 µM | [20] 99.3 µM

Cc1cnc2sn(-c3ccc(Br)cc3)c(=O)c2c1
inactive: [1] 18.3 µM | [2] 52 µM | [3] 41.2 µM | [4] 53.6 µM | [5] 33 µM | [6] > 100 µM | [7] 15.1 µM | [8] 35 µM | [9] 41.6 µM | [10] 40.7 µM | [11] 37.5 µM | [12] 40 µM | [13] 27.7 µM | [14] 45.2 µM | [15] 32.5 µM | [16] 26.8 µM | [17] 13.4 µM | [18] 36.6 µM | [19] 22.2 µM | [20] 41.2 µM

CCN(CC)CCC(=O)c1ccc(Cl)c(Cl)c1
inactive: [1] 32.3 µM | [2] > 100 µM | [3] > 100 µM | [4] 39.5 µM | [5] > 10 µM | [6] > 10 µM | [7] 24.7 µM | [8] 21.2 µM | [9] > 100 µM | [10] 24.3 µM | [11] 17.5 µM | [12] 17.1 µM | [13] > 100 µM | [14] 46.7 µM | [15] > 100 µM | [16] 27.2 µM | [17] 18.6 µM | [18] > 100 µM | [19] > 10 µM | [20] 42.3 µM

C=CCC(NC(=O)C(CC(=O)OC(C)(C)C)NC(=O)OC(C)(C)C)C(=O)OC (stereo not given) (Boc-Asp(OtBu)-[AllylGly]-OMe; configuration not given here)
inactive: [1] 30.1 µM | [2] > 100 µM | [3] > 100 µM | [4] > 100 µM | [5] > 94.8 µM | [6] 31 µM | [7] 1.84 µM | [8] > 100 µM | [9] > 100 µM | [10] 37.9 µM | [11] > 100 µM | [12] > 53.2 µM | [13] > 64.1 µM | [14] 24 µM | [15] > 100 µM | [16] 21.1 µM | [17] 37.6 µM | [18] > 100 µM | [19] 24.7 µM | [20] 20.2 µM
